Reference: publication PMC8704389, “New Insights into the Hypotensins from Tityus serrulatus Venom: Pro-Inflammatory and Vasopeptidases Modulation Activities” (Toxins, 2021)
“And” between values parts separate entries of the source, which are not always exact repeats. Equal entries are not always repeated. No end group written: not given here.

Experiments:
[1] = tested on: NEP; experiment: Modulation of NEP activity, FRET substrate Abz-RGFK(Dnp)-OH; type: biochemical, human; details: 10 µM peptide, 1.5 ng NEP, Abz-RGFK(Dnp)-OH (3.5 µM in method, 10 µM in table note), Tris HCl 50 mM, pH 7.5, 37 °C, 15 min, fluorescence 320/420 nm, triplicate
Experimental: (§1) The results were obtained by incubating the enzymes with their FRET substrates (10 µM) in a final volume of 100 µL. For the ACE assays, the used buffer was Tris HCl 100 mM, NaCl 50 mM and ZnCl2 10 µM, pH 7.0. For NEP, the assays were made in Tris HCl 50 mM, pH 7.5 buffer. All reactions occurred at 37 °C, in a Victor 3 fluorimeter (Perkin–Elmer) adjusted for excitation and emission readings at 320 and 420 nm, respectively, for 15 min (one reader per minute). Results were obtained in triplicate and analyzed on GraFit 5 software.
(§2) For ACE assays, 10 µM of each peptide was incubated with 3.0 ng of peptidase and 10 µM of Abz-FRK (Dnp) P-OH substrate, in Tris HCl 100 mM, NaCl 50 mM and ZnCl2 10 µM, pH 7.0 buffer. For NEP, 10 µM of TsHpt-I or -II was incubated with 1.5 ng of peptidase, 3.5 µM Abz-RGFK (Dnp)-OH in Tris HCl 50 mM, pH 7.5 buffer. All reactions occurred at 37 °C, in a final volume of 100 µL, in a Victor 3 fluorimeter (Perkin–Elmer, Waltham, MA, USA) adjusted for excitation and emission readings at 320 and 420 nm, respectively, for 15 min (one reader per minute). Results were obtained in triplicate and analyzed using GraFit 5 (Erithacus software, East Grinstead, West Sussex, UK).

[2] = target: T1, ACE (Oryctolagus cuniculus, UniProt P12822); experiment: Modulation of ACE activity, FRET substrate Abz-FRK(Dnp)P-OH; type: biochemical, rabbit; details: 10 µM peptide, 3.0 ng ACE, 10 µM Abz-FRK(Dnp)P-OH, Tris HCl 100 mM, NaCl 50 mM, ZnCl2 10 µM, pH 7.0, 37 °C, 15 min, fluorescence 320/420 nm, triplicate
T1 construct: Angiotensin Converting Enzyme (ACE) from rabbit lung; purchased Sigma-Aldrich; host or cells: rabbit lung tissue
T1 sequence (P12822 34-1310): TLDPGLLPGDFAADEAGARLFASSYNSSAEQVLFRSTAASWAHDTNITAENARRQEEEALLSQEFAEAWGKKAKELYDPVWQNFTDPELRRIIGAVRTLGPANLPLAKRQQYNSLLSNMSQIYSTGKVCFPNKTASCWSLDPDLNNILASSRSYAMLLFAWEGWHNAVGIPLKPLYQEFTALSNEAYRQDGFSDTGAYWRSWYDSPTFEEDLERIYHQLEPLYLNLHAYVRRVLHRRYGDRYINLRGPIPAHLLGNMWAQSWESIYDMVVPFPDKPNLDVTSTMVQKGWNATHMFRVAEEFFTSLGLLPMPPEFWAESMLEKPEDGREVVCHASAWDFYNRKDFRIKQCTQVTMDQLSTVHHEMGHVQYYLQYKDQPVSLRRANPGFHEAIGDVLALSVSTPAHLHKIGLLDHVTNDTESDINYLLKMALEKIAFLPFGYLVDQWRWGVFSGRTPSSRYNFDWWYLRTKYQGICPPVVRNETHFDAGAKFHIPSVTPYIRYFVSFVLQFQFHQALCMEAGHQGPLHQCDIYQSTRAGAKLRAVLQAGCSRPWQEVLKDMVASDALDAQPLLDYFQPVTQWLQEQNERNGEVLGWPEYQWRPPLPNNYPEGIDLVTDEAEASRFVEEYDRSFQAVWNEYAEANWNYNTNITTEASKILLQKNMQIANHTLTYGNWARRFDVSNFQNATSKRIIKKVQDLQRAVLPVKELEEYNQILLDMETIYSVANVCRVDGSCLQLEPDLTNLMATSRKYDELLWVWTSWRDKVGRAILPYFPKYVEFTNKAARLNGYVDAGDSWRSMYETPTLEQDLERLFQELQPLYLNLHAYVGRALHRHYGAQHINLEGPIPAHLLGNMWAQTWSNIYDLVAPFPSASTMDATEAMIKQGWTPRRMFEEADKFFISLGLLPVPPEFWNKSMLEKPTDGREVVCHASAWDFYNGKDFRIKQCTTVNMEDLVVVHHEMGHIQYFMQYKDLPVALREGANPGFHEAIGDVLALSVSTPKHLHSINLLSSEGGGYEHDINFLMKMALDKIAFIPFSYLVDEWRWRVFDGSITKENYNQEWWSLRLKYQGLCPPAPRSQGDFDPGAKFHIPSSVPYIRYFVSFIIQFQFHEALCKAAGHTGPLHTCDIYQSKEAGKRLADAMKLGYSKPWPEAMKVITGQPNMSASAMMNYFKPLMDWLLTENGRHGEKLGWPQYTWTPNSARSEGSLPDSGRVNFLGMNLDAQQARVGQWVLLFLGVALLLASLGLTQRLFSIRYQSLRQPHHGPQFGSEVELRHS
Experimental: as §1, §2

| Sequence | NEP Inhibition (%) [1] [%] | ACE Activation (%) [2] |
| --- | --- | --- |
| AEIDFSGIPEDIIKEIKETNAKPPA [TsHpt-II] | 11 | 46% and 44% |
| AEIDFSGIPEDIIKQIKETNAKPPA [TsHpt-I] | 75 | 64% |
